Test results from US8410289B2, “Spirocyclic 3'-alkoxytetramic acids and-tetronic acids” (Bayer Cropscience AG, priority 2004, dated 2013).

What was measured:
Summer wheat = assay: Herbicidal post-emergence action with/without safener (Example H, container trials with cereals, greenhouse or outdoors); format: in vivo
Experimental: (§1) Herbicidal Post-Emergence Action
(§2) Seeds of monocotyledonous and dicotyledonous weed and crop plants are placed into sandy loam in wood fibre pots or in plastic pots, covered with soil and cultivated in a greenhouse, during the vegetation period also outdoors outside of the greenhouse, under good growth conditions. 2-3 weeks after sowing, the test plants are treated at the one- to three-leaf stage. The test compounds, formulated as wettable powders (WP) or emulsifiable concentrates (EC) are, in various dosages with a water application rate of 300 l/ha (converted), with wetting agent (0.2 to 0.3%) added, sprayed onto the plants and the surface of the soil. 3-4 weeks after the treatment of the test plants, the effect of the preparations is rated visually in comparison to untreated controls (herbicidal effect in per cent (%): 100%=the plants have died, 0% effect=like control plants).
(§3) If it is additionally to be tested as to whether safeners can improve the crop plant compatibility of test substances in the case of crop plants, the following options are used for applying the safener: • seeds of the crop plants are, before sowing, dressed with the safener substance (the amount of safener stated in per cent, based on the weight of the seed) • before the application of the test substances, the crop plants are sprayed with the safener at a certain application rate per hectare (usually 1 day before the application of the test substances) • the safener is applied together with the test substance as a tank mix (the amount of safener is stated in g/ha or as a ratio, based on the herbicide).
(§4) By comparing the effect of the test substances on crop plants without or with safener treatment, it is possible to assess the effect of the safener substance.

barley = assay: as above; format: in vivo
Experimental: as §1, §2, §3, §4

maize = assay: Herbicidal post-emergence action with/without safener (Example H, container trials with maize in a greenhouse); format: in vivo; details: 12.5 g of a.i./ha, without safener
Experimental: as §1
as §2, with “plants). […]” for “plants).”

[1] = log P determination by HPLC on reverse-phase column (C 18), EEC-Directive 79/831 Annex V.A8; format: physicochemical; details: for chromatographic logP: reverse-phase HPLC column (C 18), HPLC, reverse-phase column (C 18), 43° C.
Experimental: • The log P values given in the tables and preparation examples above are determined in accordance with EEC-Directive 79/831 Annex V.A8 by HPLC (High Performance Liquid Chromatography) on a reverse-phase column (C 18). Temperature: 43° C.
The determination is carried out in the acidic range at pH 2.3 using the mobile phases 0.1% aqueous phosphoric acid and acetonitrile; linear gradient from 10% acetonitrile to 95% acetonitrile.
The LC-MS determination in the acidic range is carried out at pH 2.7 using the mobile phases 0.1% aqueous formic acid and acetonitrile (contains 0.1% formic acid); linear gradient from […] acetonitrile to 95% acetonitrile.
The LC-MS determination in the neutral range is carried out at pH 7.8 using the mobile phases 0.001 molar aqueous ammonium bicarbonate solution and acetonitrile; linear gradient from 10% acetonitrile to 95% acetonitrile.
The calibration is carried out using unbranched alkan-2-ones (with 3 to 16 carbon atoms) with known log P values (determination of the log P values by retention times using linear interpolation between two successive alkanones).

[2] = greenhouse, 6.25 g of a.i./ha, without safener
[3] = greenhouse, 12.5 g of a.i./ha, without safener
[4] = greenhouse, 25 g of a.i./ha, without safener
[5] = greenhouse, 50 g of a.i./ha, without safener
[6] = outdoors, 100 g of a.i./ha, without safener (tank mix trial), listed as Ex. I-1-a-1
[7] = greenhouse, 100 g of a.i./ha, without safener
[8] = greenhouse, 3.125 g of a.i./ha, without safener
[9] = compounds of formula (I-2-a); generally isomer mixtures; those marked 1) were separated into cis and trans diastereomers
[10] = HPLC reverse-phase C 18, acidic range pH 2.3, 43° C.
[11] = outdoors, 12.5 g of a.i./ha, without safener (trial with mefenpyr 1 day prior)
[12] = outdoors, 25 g of a.i./ha, without safener (tank mix trial)
[13] = outdoors, 25 g of a.i./ha, without safener (trial with mefenpyr 1 day prior)
[14] = outdoors, 50 g of a.i./ha, without safener (tank mix trial)
[15] = outdoors, 50 g of a.i./ha, without safener (trial with mefenpyr 1 day prior)
[16] = outdoors, 100 g of a.i./ha, without safener (tank mix trial), listed as Ex. I-1-a-43
[17] = outdoors, 100 g of a.i./ha, without safener (trial with mefenpyr 1 day prior)
[18] = tank mix post-emergence, 20 g of a.i./ha, without safener
[19] = tank mix post-emergence, 80 g of a.i./ha, without safener

Compound: COC1CCCC2(C1)NC(=O)C(c1c(C)cc(C)cc1C)=C2O (mixture of isomers) [Example I-1-a-2]
- Summer wheat observed (%) (Summer wheat; container trial in a greenhouse, application rate 100 g of a.i./ha, without safener): 60%

Compound: CCCCOC1CCCC2(C1)NC(=O)C(c1c(Br)cc(C)cc1CC)=C2O (single isomer, unassigned) [Example I-1-a-17]
- Summer wheat observed (%) (Summer wheat; [2]): 10%
- Summer wheat observed (%) (Summer wheat; [3]): 60%
- Summer wheat observed (%) (Summer wheat; [4]): 70%

Compound: CCCCOC1CCCC2(C1)NC(=O)C(c1c(Cl)cc(Br)cc1CC)=C2OC(=O)COC (single isomer, unassigned) [Ex. I-1-b-8]
- Summer wheat observed (%) (Summer wheat; [4]): 30%
- Summer wheat observed (%) (Summer wheat; [5]): 50%
- Summer barley observed (%) (barley; [4]): 30%
- Summer barley observed (%) (barley; [5]): 70%

Compound: CCOC(=O)OC1=C(c2c(Br)cc(C)cc2CC)C(=O)NC12CCCC(OC)C2 (single isomer, unassigned) [Ex. I-1-c-10]
- Summer wheat observed (%) (Summer wheat; [3]): 60%
- Cecilia Mais observed (%) (maize): 40%

Compound: CCCCOC1CCCC2(C1)NC(=O)C(c1c(C)cc(C)cc1C)=C2O (stereo not drawn) [Example I-1-a-1]
- Summer wheat observed (%) (Summer wheat; [6]): 35%
- Summer barley observed (%) (barley; [6]): 70%

Compound: CCOC(=O)OC1=C(c2c(Br)cc(C)cc2CC)C(=O)NC12CCCC(OCC)C2 (single isomer, unassigned) [Ex. I-1-c-9]
- Summer wheat observed (%) (Summer wheat; [5]): 30%
- Summer wheat observed (%) (Summer wheat; [7]): 60%

Compound: CCCOC1CCCC2(C1)NC(=O)C(c1c(Br)cc(C)cc1CC)=C2O (single isomer, unassigned) [Example I-1-a-12]
- Summer wheat observed (%) (Summer wheat; [2]): 10%
- Summer wheat observed (%) (Summer wheat; [3]): 97%
- Summer barley observed (%) (barley; [8]): 30%
- Summer barley observed (%) (barley; [2]): 97%
- Summer barley observed (%) (barley; [3]): 99%

Compound: CCCOC1CCCC2(C1)NC(=O)C(c1c(C)cc(C)cc1C)=C2O (single isomer, unassigned) [Example I-1-a-19]
- Summer barley observed (%) (barley; [5]): 25%
- Summer barley observed (%) (barley; [7]): 30%

Compound: CCc1cc(C)cc(Br)c1C1=C(O)C2(CCCC(OC)C2)NC1=O (single isomer, unassigned) [Example I-1-a-14]
- Summer wheat observed (%) (Summer wheat; [3]): 30%
- Summer wheat observed (%) (Summer wheat; [4]): 93%
- Summer barley observed (%) (barley; [3]): 30%
- Summer barley observed (%) (barley; [4]): 93%

Compound: CCOC1CCCC2(C1)NC(=O)C(c1c(Br)cc(C)cc1CC)=C2O (single isomer, unassigned) [Example I-1-a-18]
- Summer wheat observed (%) (Summer wheat; [8]): 30%
- Summer wheat observed (%) (Summer wheat; [2]): 40%
- Summer wheat observed (%) (Summer wheat; [3]): 95%
- Summer barley observed (%) (barley; [2]): 50%
- Summer barley observed (%) (barley; [3]): 93%

Compound: COC1CCCC2(C1)OC(=O)C(c1c(C)cc(Cl)cc1Br)=C2O (mixture of isomers) [Example I-2-a-4]
- logP [1, 9]: 2.46

Compound: CCCCOC1CCCC2(C1)OC(=O)C(c1c(C)cc(C)cc1Cl)=C2O (stereo not drawn) [I-2-a-60]
- logP [1, 9]: 3.49

Compound: CCCCOC1CCCC2(C1)NC(=O)C(c1c(Br)cc(C)cc1CC)=C2OC(=O)COC (single isomer, unassigned) [Ex. I-1-b-14]
- Summer wheat observed (%) (Summer wheat; [8]): 20%
- Summer wheat observed (%) (Summer wheat; [2]): 30%

Compound: COC1CCCC2(C1)OC(=O)C(c1c(Cl)cc(C)cc1Cl)=C2O (stereo not drawn) [Example I-2-a-21]
- logP [1, 9]: 2.27

Compound: CCc1cc(Cl)c(C2=C(O)C3(CCCC(OC)C3)OC2=O)c(Br)c1 (stereo not drawn) [Example I-2-a-29]
- logP [1, 9]: 2.62

Compound: CCCCOC1CCCC2(C1)OC(=O)C(c1ccc(C)cc1C)=C2O (stereo not drawn) [I-2-a-58]
- logP [1, 9]: 3.32

Compound: COC1CCCC2(C1)OC(=O)C(c1c(C)cc(C)cc1C)=C2OC(=O)OC(C)C (stereo not drawn) [Example I-2-c-3]
- logP [1, 10]: 4.17

Compound: CCc1cc(Br)cc(CC)c1C1=C(O)C2(CCCC(OC)C2)OC1=O (mixture of isomers) [Example I-2-a-3]
- logP [1, 9]: 2.98

Compound: COC1CCCC2(C1)OC(=O)C(c1c(C)cc(C)cc1C)=C2OC(=O)OC(C)C (stereo not drawn) [Example I-2-c-4]
- logP [1, 10]: 4.34

Compound: CCc1cc(C)cc(Br)c1C1=C(OC(=O)C(C)C)C2(CCCC(OC)C2)NC1=O (single isomer, unassigned) [Ex. I-1-b-11]
- Summer wheat observed (%) (Summer wheat; [4]): 10%
- Summer wheat observed (%) (Summer wheat; [5]): 70%

Compound: CCCCOC1CCCC2(C1)NC(=O)C(c1c(Cl)cc(Br)cc1CC)=C2OC(=O)C(C)C (single isomer, unassigned) [Ex. I-1-b-9]
- Summer wheat observed (%) (Summer wheat; [4]): 20%
- Summer wheat observed (%) (Summer wheat; [5]): 90%
- Summer barley observed (%) (barley; [4]): 30%
- Summer barley observed (%) (barley; [5]): 90%

Compound: COC1CCCC2(C1)OC(=O)C(c1cc(C)c(Br)cc1Br)=C2O (stereo not drawn) [Example I-2-a-18]
- logP [1, 9]: 2.58

Compound: CCCCOC1CCCC2(C1)NC(=O)C(c1c(C)cc(C)cc1C)=C2O (single isomer, unassigned) [Example I-1-a-43]
- Summer wheat observed (%) (Summer wheat; [11]): 30%
- Summer wheat observed (%) (Summer wheat; [12]): 40%
- Summer wheat observed (%) (Summer wheat; [13]): 60%
- Summer wheat observed (%) (Summer wheat; [14]): 50%
- Summer wheat observed (%) (Summer wheat; [15]): 15%
- Summer wheat observed (%) (Summer wheat; [16]): 60%
- Summer wheat observed (%) (Summer wheat; [17]): 30%
- Summer barley observed (%) (barley; [11]): 10%
- Summer barley observed (%) (barley; [12]): 40%
- Summer barley observed (%) (barley; [13]): 70%
- Summer barley observed (%) (barley; [14]): 50%
- Summer barley observed (%) (barley; [15]): 20%
- Summer barley observed (%) (barley; [16]): 60%
- Summer barley observed (%) (barley; [17]): 30%
- Summer barley (Scarlett) observed (%) (barley; [18]): 30%
- Winter barley observed (%) (barley; [18]): 20%
- Summer barley (Baronesse) observed (%) (barley; [19]): 30%
- Winter barley observed (%) (barley; [19]): 30%

Compound: CO[C@H]1CCC[C@]2(C1)OC(=O)C(c1cc(-c3ccc(Cl)cc3)c(C)cc1C)=C2OC(=O)C(C)C [Example I-2-b-1]
- chromatographic logP [1]: 5.37

Compound: COC1CCCC2(C1)OC(=O)C(c1c(C)cc(C)c(-c3ccc(Cl)cc3)c1C)=C2O (mixture of isomers) [I-2-a-30]
- logP [1, 9]: 3.60

Compound: CCCCOC1CCCC2(C1)OC(=O)C(c1c(C)cc(C)cc1C)=C2O (stereo not drawn) [Example I-2-a-1]
- chromatographic logP [1]: 3.57

Compound: COC1CCCC2(C1)OC(=O)C(c1c(C)cc(C)cc1Cl)=C2O (stereo not drawn) [Example I-2-a-27]
- logP [1, 9]: 2.31
